Measurements published in US20260224486A1, “DIANHYDROHEXITOL BASED IONIZABLE LIPIDS FOR NUCLEIC ACID DELIVERY” (SANOFI PASTEUR INC., priority 2023, published 2026).

Legend:
[1] = system: BALB/cJ mice; experiment: Delivery of hEPO mRNA by intramuscular administration of LNPs; serum hEPO by ELISA; type: in vivo, Mouse; conditions: for hEPO 6 Hr (ng/mL) Mean: Table 3, isomannide-derived lipids
Description: In summary, lipid screening studies were conducted with female BALB/cJ mice 6-8 weeks of age. Mice were dosed with 0.1 μg in 30 μL of LNPs by a single intramuscular (IM) injection into the gastrocnemius leg muscle. Blood samples were taken 6 and 24 hours post injection and hEPO levels were measured in the blood serum of the mice using an ELISA assay according to the manufacture's protocol.
Treatment Regimen: On Day 1, animals from Groups 1-33 were dosed via intramuscular injection while under light isoflurane anesthesia according to the study design table above. Animals in Groups 1-33 were injected with EPO mRNA LNPs in the right leg only. Groups 1 and 17 animals received MC3 control.
Interim Sample Collections: Interim whole blood (^~50 μL) was collected by tail snip or saphenous vein at 6 and 24 hours post dose administration (±5%). Blood samples were collected into serum separator tubes, allowed to clot at room temperature for at least 10 minutes, centrifuged at ambient temperature at minimum 1000 g for 10 minutes and the serum was extracted. All serum samples were stored at nominally −70° C. until analysis hEPO by the Testing Facility. The results of the EPO analysis were included in the Data Submission.
Terminal Blood Collections: Whole blood was collected via cardiac puncture into serum separator tube, allowed to clot at room temperature for at least 10 minutes, centrifuged at ambient temperature at minimum 1000 g for 10 minutes and the serum was extracted. Serum samples were stored at nominally −70° C. until analyzed for hEPO by the Test Facility.
ELISA Assay: Human erythropoietin (hEPO) levels in sera samples were determined by ELISA kit (R&D systems, Cat #DEP-00) according to the manufactory instruction and the results were included in the Data Submission. The “shaker” protocol was used. The serum samples were diluted between 1:40 and 1:100.

[2] = Lipid nanoparticle size and polydispersity index by dynamic light scattering (Malvern Zetasizer); type: physicochemical; conditions: hEPO mRNA LNP, Process A, Cationic Lipid:DMG-PEG2000:Cholesterol:DOPE 40:1.5:28.5:30 mol %, N/P 4
Text: The lipid nanoparticles in the examples of the present invention were formulated using Process A of WO 2018/089801 (see, e.g., Example 1 and FIG. 1 of WO 2018/089801). Process A (“A”) relates to a conventional method of encapsulating mRNA by mixing mRNA with a mixture of lipids, without first pre-forming the lipids into lipid nanoparticles. In an exemplary process, an ethanolic solution of a mixture of lipids (cationic lipid, phosphatidylethanolamine, cholesterol, and polyethylene glycol-lipid) at a fixed lipid to mRNA ratio were combined with an aqueous buffered solution of target mRNA at an acidic pH under controlled conditions to yield a suspension of uniform LNPs. After ultrafiltration and diafiltration into a suitable diluent system, the resulting nanoparticle suspensions were diluted to final concentration, filtered, and stored frozen at −80° C. until use.
(§1) Lipid nanoparticle formulations of Table 1 were prepared by Process A. All of the lipid nanoparticle formulations comprised hEPO mRNA and the different lipids (Cationic Lipid: DMG-PEG2000: Cholesterol: DOPE) in mol % ratios of 40:1.5:28.5:30 (Cationic Lipid: DMG-PEG2000: Cholesterol: DOPE).
The Polydispersity Index (Pdl) of lipid nanoparticles can be determined by diluting the formulation in 10% trehalose at about 0.1 mg/ml mRNA concentration and then measuring the size on Malvern zetasizer. The lipid nanoparticle size can be obtained with Malvern Zetasizer Nano-ZS.
Dynamic light scattering (DLS) measurements were performed using a Malvern Instruments Zetasizer with a backscattering detector angle of 173° and a 4-mW, 633-nm He—Ne laser (Worcestershire, UK). The samples were analyzed by diluting in 10% Trehalose and measuring the size and Poly dispersity Index (PDI) in an optical grade polystyrene cuvette.

[3] = mRNA encapsulation efficiency of lipid nanoparticles (RiboGreen assay); type: physicochemical; conditions: hEPO mRNA LNP, Process A, Cationic Lipid:DMG-PEG2000:Cholesterol:DOPE 40:1.5:28.5:30 mol %, N/P 4
Text: In embodiments, the lipid nanoparticle encapsulates a nucleic acid, optionally an mRNA encoding a peptide or protein. In embodiments, the lipid nanoparticle encapsulates an mRNA encoding a peptide or protein, optionally for use in a vaccine. In embodiments, the peptide is an antigen. As used herein, the phrase “encapsulation percentage” refers to the fraction of therapeutic agent (e.g. mRNA) that is effectively encapsulated within a liposomal-based vehicle (e.g. a lipid nanoparticle) relative to the initial fraction of therapeutic agent present in the lipid phase. In embodiments, the lipid nanoparticles have an encapsulation percentage for mRNA of at least 50%. In embodiments, the lipid nanoparticles have an encapsulation percentage for mRNA of at least 55%. In embodiments, the lipid nanoparticles have an encapsulation percentage for mRNA of at least 60%. In embodiments, the lipid nanoparticles have an encapsulation percentage for mRNA of at least 65%. In embodiments, the lipid nanoparticles have an encapsulation percentage for mRNA of at least 70%. In embodiments, the lipid nanoparticles have an encapsulation percentage for mRNA of at least 75%. In embodiments, the lipid nanoparticles have an encapsulation percentage for mRNA of at least 80%. In embodiments, the lipid nanoparticles have an encapsulation percentage for mRNA of at least 85%. In embodiments, the lipid nanoparticles have an encapsulation percentage for mRNA of at least 90%. In embodiments, the lipid nanoparticles have an encapsulation percentage for mRNA of at least 95%. In embodiments, the encapsulation percentage is calculated by performing the Ribogreen assay (Invitrogen) with and without the presence of 0.1% Triton-X 100.
as §1
The RiboGreen Assay is a fluorescence-based method for the determination of mRNA concentration (Total and Free) and % encapsulation using Quant-iT™ RiboGreen® RNA reagent in mRNA containing lipid nanoparticles.
• To each of the standards (Blank, mRNA-1, mRNA-2. mRNA-3, mRNA-4, mRNA-5) and Samples (free mRNA and total mRNA), add 1.0 mL of 200-fold Ribogreen Reagent Solution and gently mix by inversion. This is a 2× Dilution. • Add 200 μL of each standard and sample in triplicate using the reverse pipetting technique in a 96-well Costar Black with Clear Background Plate. Ensure no bubbles are present in the plate before the fluorescence reading. • Read the fluorescence signal using the below instrument parameters: • Read Type: Fluorescence, Bottom Read • Excitation: 485 nm; Cut-off: 515 nm; Emission: 530 nm • Plate Type: 96-well Costar Black with Clear Background
The average fluorescence from each calibration standard is plotted against the concentration to generate a linear calibration curve using the MS Excel software. The coefficient of determination (R^2) of calibration curve must be R^2>0.99.
[formula] • Where, • Y=average fluorescence value • m: slope • x: concentration (pg/mL) • c: y-intercept • Using the linear equation, calculate the concentration of free and total mRNA concentration in the test sample by replacing the y value in the equation with the average fluorescence value of each respective sample • Once the concentration is determined, the actual concentration in the sample can be back-calculated by multiplying the concentration in the test sample with the dilution factor (DF) as follows:
[formula] [formula] • Concentration of encapsulated mRNA can be determined by subtracting the concentration of free mRNA from the total mRNA. • % Encapsulation can then be calculated by taking the ratio of encapsulated mRNA over total mRNA and multiplying the result with 100.

[4] = mouse serum 6 hours post single IM injection of 0.1 μg hEPO mRNA LNP
[5] = Table 4, further lipids, mouse serum 6 hours post IM injection of hEPO mRNA LNP as in example 3
[6] = Table 2, isosorbide-derived lipids, mouse serum 6 hours post single IM injection of 0.1 μg hEPO mRNA LNP

| Structure (SMILES) | Polydispersity Index (PDI) [2] | Size (nm) [2] | Encapsulation efficiency (EE) % [3] | hEPO 6 Hr (ng/mL) Mean [1, 4] | hEPO 6 Hr (ng/ml) Mean [1, 5] | hEPO 6 Hr (ng/ml) Mean [1, 6] |
| --- | --- | --- | --- | --- | --- | --- |
| CCCCCCCCCCCCC(O)CN(CCCOC(=O)N[C@H]1CO[C@H]2[C@@H]1OC[C@@H]2NC(=O)OCCCN(CC(O)CCCCCCCCCCCC)CC(O)CCCCCCCCCCCC)CC(O)CCCCCCCCCCCC (some centres unmarked) [Compound 53] | 0.2 | 97 nm | 96% | – | 72.0 ng/mL | – |
| CCCCCCCCCCC(O)CN(CCCC(=O)O[C@H]1CO[C@H]2[C@@H]1OC[C@H]2OC(=O)CCCN(CC(O)CCCCCCCCCC)CC(O)CCCCCCCCCC)CC(O)CCCCCCCCCC (some centres unmarked) [Compound 29] | 0.13 | 126 nm | 96% | – | – | 38.4 ng/mL |
| CCCCCCCCCCCCCCC(O)CN(CCCC(=O)O[C@@H]1CO[C@H]2[C@@H]1OC[C@H]2OC(=O)CCCN(CC(O)CCCCCCCCCCCCCC)CC(O)CCCCCCCCCCCCCC)CC(O)CCCCCCCCCCCCCC (some centres unmarked) [Compound 6] | 0.16 | 114 nm | 99% | 40.9 ng/mL | – | – |
| CCCCCCCCC(O)CN(CCCC(=O)O[C@@H]1CO[C@H]2[C@@H]1OC[C@H]2OC(=O)CCCN(CC(O)CCCCCCCC)CC(O)CCCCCCCC)CC(O)CCCCCCCC (some centres unmarked) [Compound 1] | 0.14 | 93 nm | 85% | 42.5 ng/mL | – | – |
| CCCCCCCCCCCOC(=O)CCCC(O)CN(CCCC(=O)O[C@@H]1CO[C@H]2[C@@H]1OC[C@@H]2OC(=O)CCCN(CC(O)CCCCCCCCCC)CC(O)CCCCCCCCCC)CC(O)CCCCCC(=O)OC(CCCCCCCC)CCCCCCCC (stereo in doubt) [Compound 32] | 0.2 | 94 nm | 94% | – | – | 33.2 ng/mL |
| CCCCCCCCC(O)CN(CCCC(=O)N[C@H]1CO[C@H]2[C@@H]1OC[C@@H]2NC(=O)CCCN(CC(O)CCCCCCCC)CC(O)CCCCCCCC)CC(O)CCCCCCCC (some centres unmarked) [Compound 51] | 0.12 | 71 nm | 81% | – | 47.6 ng/mL | – |
| CCCCCC/C=C\COC(=O)CCCCCC(O)CN(CCCC(=O)O[C@@H]1CO[C@H]2[C@@H]1OC[C@H]2OC(=O)CCCN(CC(O)CCCCCCCCCC)CC(O)CCCCCCCCCC)CC(O)CCCCCC(=O)OC/C=C\CCCCCC (some centres unmarked) [Compound 15] | 0.11 | 88 nm | 91% | 22.8 ng/mL | – | – |
| CCCCCCCCCCC(O)CN(CCCSC(=O)N[C@H]1CO[C@H]2[C@@H]1OC[C@@H]2NC(=O)SCCCN(CC(O)CCCCCCCCCC)CC(O)CCCCCCCCCC)CC(O)CCCCCCCCCC (some centres unmarked) [Compound 54] | 1.6 | 79 nm | 87% | – | 12.0 ng/mL | – |

The next lines start with results.

| Polydispersity Index (PDI) [2] | Size (nm) [2] | Encapsulation efficiency (EE) % [3] | Structure (SMILES) | hEPO 6 Hr (ng/mL) Mean [1, 4] | hEPO 6 Hr (ng/ml) Mean [1, 5] | hEPO 6 Hr (ng/ml) Mean [1, 6] |
| --- | --- | --- | --- | --- | --- | --- |
| 0.16 | 77 nm | 68% | CCCCCCCCC(O)CN(CCCCC(=O)O[C@@H]1CO[C@H]2[C@@H]1OC[C@H]2OC(=O)CCCCN(CC(O)CCCCCCCC)CC(O)CCCCCCCC)CC(O)CCCCCCCC (some centres unmarked) [Compound 2] | 36.3 ng/mL | – | – |
| 0.25 | 65 nm | 95% | CCCCCCCCCCCCC(O)CN(CCCOC(=O)O[C@@H]1CO[C@H]2[C@@H]1OC[C@H]2OC(=O)OCCCN(CC(O)CCCCCCCCCCCC)CC(O)CCCCCCCCCCCC)CC(O)CCCCCCCCCCCC (some centres unmarked) [Compound 37] | 27.4 ng/mL | – | – |
| 0.103 | 91 nm | 94% | CCCCCCCCCCCCC(O)CN(CCCCC(=O)O[C@H]1CO[C@H]2[C@@H]1OC[C@H]2OC(=O)CCCCN(CC(O)CCCCCCCCCCCC)CC(O)CCCCCCCCCCCC)CC(O)CCCCCCCCCCCC (some centres unmarked) [Compound 28] | – | – | 40.2 ng/mL |
| 0.11 | 107 nm | 75% | CCCCCCCCCCCCC(O)CN(CCCCC(=O)O[C@@H]1CO[C@H]2[C@@H]1OC[C@H]2OC(=O)CCCCN(CC(O)CCCCCCCCCCCC)CC(O)CCCCCCCCCCCC)CC(O)CCCCCCCCCCCC (some centres unmarked) [Compound 5] | 26.3 ng/mL | – | – |
| 0.139 | 78 nm | 96% | CCCCCCCCC(O)CN(CCCCC(=O)O[C@H]1CO[C@H]2[C@@H]1OC[C@H]2OC(=O)CCCCN(CC(O)CCCCCCCC)CC(O)CCCCCCCC)CC(O)CCCCCCCC (some centres unmarked) [Compound 21] | – | – | 31.6 ng/mL |
| 0.12 | 69 nm | 72% | CCCCCCCCCCC(O)CN(CCCCOC(=O)O[C@@H]1CO[C@H]2[C@@H]1OC[C@H]2OC(=O)OCCCCN(CC(O)CCCCCCCCCC)CC(O)CCCCCCCCCC)CC(O)CCCCCCCCCC (some centres unmarked) [Compound 38] | 22.6 ng/mL | – | – |
